Literature values, collected in patent publication US20040047835A1, “Combinatorial drug therapy using polymer drug conjugates” (priority 2002, published 2004).
Read-outs that look alike come from different tables or passages of the source.

How the values were obtained:
[1] = system: cell cycle
[2] = system: mammary MCa-4 tumor; settings: mammary MCa-4 tumor model; radiation preceded drug injection
[3] = system: tumor-bearing hosts; settings: compared with free (unconjugated) paclitaxel
[4] = system: ovarian Oca-1 carcinoma; settings: equivalent paclitaxel dose of 60 mg/kg 24 h after tumor irradiation; versus radiation and paclitaxel

Compound	effect on cell cycle [1]	interaction of combined radiation and drug [2]	anti-tumor activity / efficacy [3]	anti-tumor activity / efficacy ([3]; listed as PGTXL)	tumor growth delay, combined with radiation [4]
poly(L-glutamic acid)-paclitaxel [PG-TXL]	induced a G2/M arrest	synergistic interaction	increased efficacy	superior anti-tumor activity	significantly greater tumor growth delay
CC(=O)O[C@H]1C(=O)[C@@]2(C)[C@H]([C@H](OC(=O)c3ccccc3)[C@]3(O)C[C@H](OC(=O)[C@H](O)[C@@H](NC(=O)c4ccccc4)c4ccccc4)C(C)=C1C3(C)C)[C@]1(OC(C)=O)CO[C@@H]1C[C@@H]2O [paclitaxel, reference compound]	induced a G2/M arrest	additive or sub-additive interaction			
